The record followed here is ChEMBL document CHEMBL5053539, “THC shows activity against cultured Plasmodium falciparum” (Bioorg Med Chem Lett, 2021).

Experiment [1] concerns Plasmodium falciparum. Briefly: Antiplasmodial activity against chloroquine-sensitive Plasmodium falciparum NF54. Type of experiment: functional, organism-based.
Experiment [2] relates to Plasmodium falciparum. Briefly: Antiplasmodial activity against multidrug-resistant Plasmodium falciparum K1. Type of experiment: functional, organism-based.
In another experiment the test system is Hemozoin. The experiment in a line: Inhibition of Beta-hematin in Plasmodium falciparum cells assessed as hemozoin formation after 32 hrs by NP40 detergent-mediated assay.

Broadly, the IC50 is the midpoint of a concentration-inhibition curve. With `CCCCCc1cc(O)c2c(c1)OC(C)(C)[C@@H]1CCC(C)=C[C@@H]21` [DRONABINOL], the results for the IC50 in the experiment on Plasmodium falciparum [1], in the experiment with Plasmodium falciparum [2] and in the experiment with Hemozoin were 0.79 µM, 0.72 µM and 11.3 µM, respectively.

As for `CCN(CC)CCCC(C)Nc1ccnc2cc(Cl)ccc12` (stereo unspecified) [CHLOROQUINE], the IC50 in the experiment with Hemozoin was determined as 16.8 µM.

`C=C(C)[C@@H]1CCC(C)=C[C@H]1c1c(O)cc(CCCCC)cc1O` [CANNABIDIOL]: the concentration for half-maximal inhibition (IC50) in the experiment with Plasmodium falciparum [1] was 4.1 µM; with Hemozoin it was 51.1 µM.
